Experimental data from patent publication US10670605B2, “Cysteine reactive probes and uses thereof” (The Scripps Research Institute, priority 2015, dated 2020).

What was measured:
Experiment in all cases: Competitive isoTOP-ABPP in situ (fragment-treated cells)
Assay type in all cases: cell-based
[1] = molecular target: T1, cysteines in MDA-MB-231 and Ramos cells (Homo sapiens, UniProt P42765)
T1 sequence (P42765 1-397): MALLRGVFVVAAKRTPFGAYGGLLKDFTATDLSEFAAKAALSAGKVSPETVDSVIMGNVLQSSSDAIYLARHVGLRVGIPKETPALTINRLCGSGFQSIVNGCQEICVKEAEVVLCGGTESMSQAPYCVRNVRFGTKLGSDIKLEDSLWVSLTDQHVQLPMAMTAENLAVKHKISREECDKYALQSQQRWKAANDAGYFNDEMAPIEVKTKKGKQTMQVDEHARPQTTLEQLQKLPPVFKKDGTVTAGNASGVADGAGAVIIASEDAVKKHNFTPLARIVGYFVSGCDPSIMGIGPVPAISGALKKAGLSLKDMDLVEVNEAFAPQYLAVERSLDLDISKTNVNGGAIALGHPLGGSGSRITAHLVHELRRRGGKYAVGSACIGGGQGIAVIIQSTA

[2] = molecular target: T2, cysteines in MDA-MB-231 and Ramos cells (Homo sapiens, UniProt P52597)
T2 sequence (P52597 1-415): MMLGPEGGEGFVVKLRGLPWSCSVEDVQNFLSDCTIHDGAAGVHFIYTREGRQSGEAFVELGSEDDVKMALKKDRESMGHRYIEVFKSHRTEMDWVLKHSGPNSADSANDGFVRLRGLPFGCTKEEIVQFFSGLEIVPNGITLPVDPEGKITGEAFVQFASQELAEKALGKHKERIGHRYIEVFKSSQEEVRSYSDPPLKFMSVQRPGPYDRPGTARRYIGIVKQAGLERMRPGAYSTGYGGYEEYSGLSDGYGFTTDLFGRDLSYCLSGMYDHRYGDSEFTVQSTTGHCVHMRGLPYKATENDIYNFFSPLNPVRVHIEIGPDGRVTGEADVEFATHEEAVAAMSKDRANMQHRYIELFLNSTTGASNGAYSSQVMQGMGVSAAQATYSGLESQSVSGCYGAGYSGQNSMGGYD

[3] = molecular target: T3, cysteines in MDA-MB-231 and Ramos cells (Homo sapiens, UniProt Q96RN5)
T3 sequence (Q96RN5 1-788): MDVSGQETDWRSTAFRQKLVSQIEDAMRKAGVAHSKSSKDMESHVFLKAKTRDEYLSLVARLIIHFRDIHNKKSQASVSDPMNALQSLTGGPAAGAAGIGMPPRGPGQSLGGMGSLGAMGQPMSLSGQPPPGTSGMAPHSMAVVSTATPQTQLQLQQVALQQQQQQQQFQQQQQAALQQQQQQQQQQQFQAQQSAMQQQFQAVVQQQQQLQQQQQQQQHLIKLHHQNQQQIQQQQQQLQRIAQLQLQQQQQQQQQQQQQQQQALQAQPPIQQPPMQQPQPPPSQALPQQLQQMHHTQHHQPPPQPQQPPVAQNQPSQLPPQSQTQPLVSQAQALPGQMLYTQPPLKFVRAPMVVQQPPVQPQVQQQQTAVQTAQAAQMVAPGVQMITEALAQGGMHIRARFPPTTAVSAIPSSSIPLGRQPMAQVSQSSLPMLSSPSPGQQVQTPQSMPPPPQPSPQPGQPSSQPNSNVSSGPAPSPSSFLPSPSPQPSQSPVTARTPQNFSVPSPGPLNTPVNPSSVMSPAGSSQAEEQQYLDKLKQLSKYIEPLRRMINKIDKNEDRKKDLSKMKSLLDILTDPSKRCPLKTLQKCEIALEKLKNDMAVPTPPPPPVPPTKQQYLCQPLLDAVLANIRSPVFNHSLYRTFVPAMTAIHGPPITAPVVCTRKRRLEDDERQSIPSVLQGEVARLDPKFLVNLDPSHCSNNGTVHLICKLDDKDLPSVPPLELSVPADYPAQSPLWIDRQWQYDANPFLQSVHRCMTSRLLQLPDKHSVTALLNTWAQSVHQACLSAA

[4] = molecular target: T4, cysteines in MDA-MB-231 and Ramos cells (Homo sapiens, UniProt P04183)
T4 sequence (P04183 1-234): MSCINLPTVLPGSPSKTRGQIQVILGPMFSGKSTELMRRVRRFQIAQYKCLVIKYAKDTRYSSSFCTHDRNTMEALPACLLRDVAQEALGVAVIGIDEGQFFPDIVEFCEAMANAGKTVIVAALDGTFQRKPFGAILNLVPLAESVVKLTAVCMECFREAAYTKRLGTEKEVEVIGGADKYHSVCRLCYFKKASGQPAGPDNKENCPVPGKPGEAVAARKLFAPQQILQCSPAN

[5] = molecular target: T5, cysteines in MDA-MB-231 and Ramos cells (Homo sapiens, UniProt P31943)
T5 sequence (P31943 1-449): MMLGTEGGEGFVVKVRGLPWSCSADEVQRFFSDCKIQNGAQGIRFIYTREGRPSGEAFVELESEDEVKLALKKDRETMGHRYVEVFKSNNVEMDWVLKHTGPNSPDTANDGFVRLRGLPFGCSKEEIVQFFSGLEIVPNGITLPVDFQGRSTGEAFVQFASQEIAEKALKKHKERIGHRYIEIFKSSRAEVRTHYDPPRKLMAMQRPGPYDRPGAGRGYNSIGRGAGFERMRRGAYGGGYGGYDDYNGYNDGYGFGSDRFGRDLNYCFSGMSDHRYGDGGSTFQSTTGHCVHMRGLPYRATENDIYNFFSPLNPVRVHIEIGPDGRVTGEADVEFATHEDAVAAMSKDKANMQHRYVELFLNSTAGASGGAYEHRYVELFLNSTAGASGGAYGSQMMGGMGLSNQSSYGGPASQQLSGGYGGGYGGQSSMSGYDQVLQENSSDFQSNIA

SMILES | isoTOP-ABPP ratio P42765_C92 ([1]; 200 μM, insitu, 231) | isoTOP-ABPP ratio P52597_C267 ([2]; 200 μM, insitu, 231) | isoTOP-ABPP ratio P04183_C230 ([4]; 200 μM, insitu, 231) | isoTOP-ABPP ratio P31943_C267 ([5]; 200 μM, insitu, 231) | isoTOP-ABPP ratio Q96RN5_C618 ([3]; 200 μM, insitu, 231) | further results
COc1ccc2c(c1)CCCN2C(=O)CCl [compound 2] |  |  |  |  |  | isoTOP-ABPP reactivity P42765_C92 ACAA2 ([1]; 200 μM, insitu, 231): 20.0; isoTOP-ABPP reactivity P52597_C267 HNRNPF ([2]; 200 μM, insitu, 231): 4.2; isoTOP-ABPP reactivity O96RN5_C618 MED15 ([3]; 200 μM, insitu, 231): 6.4; isoTOP-ABPP reactivity P04183_C230 TK1 ([4]; 200 μM, insitu, 231): 1.9; isoTOP-ABPP reactivity P31943_C267 HNRNPH1 ([5]; 200 μM, insitu, 231): 3.8
COc1ccc(C2CC(c3cccs3)=NN2C(=O)CCl)cc1 (stereo not shown) [compound 4] |  |  |  |  |  | isoTOP-ABPP reactivity P42765_C92 ACAA2 ([1]; 100 μM in situ 231): 3.7; isoTOP-ABPP reactivity P52597_C267 HNRNPF ([2]; 100 μM in situ 231): 20.0; isoTOP-ABPP reactivity O96RN5_C618 MED15 ([3]; 100 μM in situ 231): 4.5; isoTOP-ABPP reactivity P04183_C230 TK1 ([4]; 100 μM in situ 231): 0.8; isoTOP-ABPP reactivity P31943_C267 HNRNPH1 ([5]; 100 μM in situ 231): 6.0
COc1cc2c(cc1OC)CN(C(=O)CCl)CC2 [compound 8] |  |  |  |  |  | isoTOP-ABPP reactivity P42765_C92 ACAA2 ([1]; 200 μM, insitu, 231): 20.0; isoTOP-ABPP reactivity O96RN5_C618 MED15 ([3]; 200 μM, insitu, 231): 20.0; isoTOP-ABPP reactivity P04183_C66 TK1 ([4]; 200 μM, insitu, 231): 2.3; isoTOP-ABPP reactivity P31943_C267 HNRNPH1 ([5]; 200 μM, insitu, 231): 5.3
O=C(CCl)N1CCC(Cc2ccccc2)CC1 [compound 9] |  |  |  |  |  | isoTOP-ABPP reactivity P42765_C92 ACAA2 ([1]; 200 μM, insitu, 231): 4.3; isoTOP-ABPP reactivity P52597_C267 HNRNPF ([2]; 200 μM, insitu, 231): 3.2; isoTOP-ABPP reactivity P04183_C66 TK1 ([4]; 200 μM, insitu, 231): 7.0; isoTOP-ABPP reactivity P04183_C230 TK1 ([4]; 200 μM, insitu, 231): 10.0; isoTOP-ABPP reactivity P31943_C267 HNRNPH1 ([5]; 200 μM, insitu, 231): 2.1
O=C(CCl)N1CCN(S(=O)(=O)c2ccccc2F)CC1 [compound 10] | 3.7 | 2.5 | 1.3 | 4.8 |  | isoTOP-ABPP ratio P42765_C92 ([1]; 200 μM, insitu, ramos): 1.1; isoTOP-ABPP ratio P52597_C267 ([2]; 200 μM, insitu, ramos): 2.4; isoTOP-ABPP ratio P31943_C267 ([5]; 200 μM, insitu, ramos): 2.5
Cn1cc(S(=O)(=O)N2CCOCC2)cc1C(=O)NC(=O)CCl [compound 11] |  |  |  |  |  | isoTOP-ABPP ratio P52597_C267 ([2]; 100 μM in situ 231): 1.0; isoTOP-ABPP ratio Q96RN5_C618 ([3]; 100 μM in situ 231): 1.0; isoTOP-ABPP ratio, cysteine P04183_C66 ([4]; 100 μM in situ 231): 0.6; isoTOP-ABPP ratio P31943_C267 ([5]; 100 μM in situ 231): 0.9
O=C(CCl)NC(=O)NC12CC3CC(CC(C3)C1)C2 [compound 12] | 20.0 | 6.8 |  | 5.0 | 20.0 | 
O=C(CCl)NCCc1c[nH]c2ccccc12 [compound 13] |  | 1.2 | 0.7 | 1.1 | 1.0 | isoTOP-ABPP ratio P42765_C92 ([1]; 200 μM, insitu, ramos): 2.2; isoTOP-ABPP ratio P52597_C267 ([2]; 200 μM, insitu, ramos): 1.3; isoTOP-ABPP ratio Q96RN5_C618 ([3]; 200 μM, insitu, ramos): 1.4; isoTOP-ABPP ratio, cysteine P04183_C66 ([4]; 200 μM, insitu, 231): 1.0; isoTOP-ABPP ratio P31943_C267 ([5]; 200 μM, insitu, ramos): 1.2
O=C(CCl)NC12CC3CC(CC(C3)C1)C2 [compound 21] | 1.3 | 1.5 | 0.7 | 1.5 | 1.0 | 
CC(C)CCOCCNC(=O)CCl [compound 27] | 1.2 | 1.0 |  | 1.1 | 0.8 | 
COc1ccccc1OCCNC(=O)CCl [compound 28] |  |  |  |  | 0.7 | 
O=C(CCl)N1CCN(CC(=O)N2CCOCC2)CC1 [compound 29] |  |  |  |  |  | isoTOP-ABPP ratio P42765_C92 ([1]; 200 μM, insitu, ramos): 0.9; isoTOP-ABPP ratio P52597_C267 ([2]; 200 μM, insitu, ramos): 1.2; isoTOP-ABPP ratio Q96RN5_C618 ([3]; 200 μM, insitu, ramos): 1.3; isoTOP-ABPP ratio P04183_C66 ([4]; 200 μM, insitu, ramos): 1.6; isoTOP-ABPP ratio P04183_C230 ([4]; 200 μM, insitu, ramos): 1.2; isoTOP-ABPP ratio P31943_C267 ([5]; 200 μM, insitu, ramos): 1.4
C=CC(=O)N(Cc1cccnc1)c1cc(C(F)(F)F)cc(C(F)(F)F)c1 [compound 31] | 0.8 | 1.2 |  | 0.7 | 0.9 | isoTOP-ABPP ratio P42765_C92 ([1]; 200 μM, insitu, ramos): 1.2; isoTOP-ABPP ratio P52597_C267 ([2]; 200 μM, insitu, ramos): 1.3; isoTOP-ABPP ratio P04183_C66 ([4]; 200 μM, insitu, 231): 0.7; isoTOP-ABPP ratio P04183_C230 ([4]; 200 μM, insitu, ramos): 2.1; isoTOP-ABPP ratio P31943_C267 ([5]; 200 μM, insitu, ramos): 0.9
C=CC(=O)Nc1cc(F)c(N2CCN(C(=O)OC(C)(C)C)CC2)c(F)c1 [compound 38] | 0.9 | 1.8 | 2.8 | 1.2 | 1.4 | 
Cc1ccc(C=C(C#N)C(=O)NCCN2CCOCC2)cc1 [compound 41] | 1.1 | 0.8 | 0.6 | 1.0 |  | isoTOP-ABPP ratio P04183_C66 ([4]; 200 μM, insitu, 231): 0.4

Further lines, with some results ahead:

isoTOP-ABPP ratio P42765_C92 ([1]; 200 μM, insitu, 231) | isoTOP-ABPP ratio P52597_C267 ([2]; 200 μM, insitu, 231) | isoTOP-ABPP ratio P04183_C230 ([4]; 200 μM, insitu, 231) | isoTOP-ABPP ratio P31943_C267 ([5]; 200 μM, insitu, 231) | isoTOP-ABPP ratio Q96RN5_C618 ([3]; 200 μM, insitu, 231) | SMILES | further results
15.1 | 4.1 | 2.0 | 3.6 | 20.0 | CC1CCc2ccccc2N1C(=O)CCl (stereo not shown) [compound 45] | 
1.1 | 1.3 | 0.7 | 1.3 | 2.1 | O=C(CCl)Nc1cccc2ncccc12 [compound 51] | 
